Assay results reported in patent US20030096237A1, “Determination of the ability of patients to respond to a tumor treatment” (priority 2000, published 2003).

System: CNCM I-2545
Test: oligonucleotide array analysis of IFN-α modulated gene expression
Assay type: cell-based, human
Method: All these cell lines were cultured in RPMI medium supplemented with 10% FCS, glutamine (2 mM), sodium pyruvate (1 mM), non-essential amino acids and HEPES buffer (10 mM) (all from GIBCO Life Sciences, Paisley, UK). When confluent, the cells were passaged by trypsinization.
Cultured melanoma cells were harvested by scraping and total cellular RNA was extracted. 10 μg from each sample were used directly as templates for cDNA synthesis using a commercial kit (Roche Molecular Biochemicals, Rotkreuz, Switzerland). The T7 promoter sequence incorporated into the cDNA synthesis primer allowed template amplification and biotin labeling by in vitro transcription using a commercial kit (Affymetrix, Santa Clara, Calif.). After alkaline heat fragmentation […] was hybridised to the array (Affymetrix, Santa Clara, Calif.) and all subsequent steps were performed following standard procedures as supplied with the arrays. Raw data were collected with a confocal laser scanner (Hewlett Packard, Palo Alto, Calif.) using GeneChip software v3.1 (Affymetrix, Santa Clara, Calif.).
Raw data were normalized based on the total chip signal obtained upon hybridisation of ME15 cell line cDNA. This array was selected because: i) the 5′/3′ intensity ratio of control genes was smaller than 3; ii)>25% of the genes are called “present” by Genechip; iii) the image appearance is homogeneous with low background and no sign of mechanical chip damage.
The normalized average difference (nAD) between the signals of the perfect and of the mismatch probesets for each gene was used as the expression level of a given gene. At least one nAD value in a pairwise comparison of data has to exceed 50 to be included. Based on nAD, change factors related to IFN-α exposure were also calculated. Negative nAD values were set to 20 in order to avoid the calculation of artificially high modifications. In order to exclude artefacts, only genes with robust change factors, greater than 2-fold, were included in the analysis. […] Genes were clustered according to their mode of regulation.
Total cellular RNA was extracted from the sensitive and resistant melanoma cell lines identified above, reverse transcribed and processed for hybridization to an oligonucleotide array (Hu6800FL, PN 900183) containing probe sets derived from 7000 full-length human genes. Expression levels for each gene were calculated as normalized average difference (nAD, see materials and methods).
Patterns of genes expressed in IFN-α sensitive and resistant melanoma cell lines were investigated upon 48 hour culture in the presence of IFN-α. CNCM I-2546 and CNCM I-2545 were studied in detail.
In Table 2 below, CNCM I-2546 and CNCM I-2545 cultured for 48 hours in the absence or in the presence of 100 U/ml IFN-α were used to assay cytokine modulated gene expression as matched with data obtained in fibrosarcoma cells. This analysis yielded six clusters of genes. […] Data are presented as average difference of signal intensity between match and mismatch probesets.
In Table 3 below, CNCM I-2546 and CNCM I-2545 cell lines cultured for 48 hours in the absence or in the presence of 100 U/ml IFN-α were used to identify novel cytokine induced genes whose expression was not found to be modulated in fibrosarcoma cells. Cluster 1 includes genes inducible in the CNCM I-2546 sensitive but not in the CNCM I-2545 resistant cell line. Cluster 2 comprises genes inducible in both lines. Data are presented as average difference of signal intensity between match and mismatch probesets.

[1] = CNCM I-2545, IFN-α 100 U/ml 48 hours

change factor (CF) D32050 alanyl-trna synthetase [1]: −0.92
change factor (CF) D78132 rheb gene, ras-related gtp binding protein gene [1]: 1.88
change factor (CF) L13210 mac-2 binding protein [1]: −0.22
change factor (CF) L35249 vacuolar h + -atpase mr 56,000 subunit (ho57) [1]: 16.85
change factor (CF) L37043 casein kinase i epsilon [1]: 0.01
change factor (CF) L40387 thyroid receptor interactor (trip14) [1]: −4.2
change factor (CF) L42243 ifnar2 gene (interferon receptor) [1]: −2.1
change factor (CF) M19650 2′,3′-cyclic nucleotide 3prime-phosphodiesterase [1]: −0.38
change factor (CF) U18018 ela enhancer binding protein (ela-f) [1]: 0.15
change factor (CF) U47025 fetal brain glycogen phosphorylase b [1]: −0.45
change factor (CF) U50327 protein kinase c substrate 80k-h gene (prkcsh) [1]: −0.7
change factor (CF) U50648 interferon-inducible rna-dependent protein kinase (pkr) [1]: −1.3
change factor (CF) U65579 mitochondrial nadh dehydrogenase-ubiquinone [1]: −0.01
change factor (CF) U69126 fuse binding protein 2 (fbp2) [1]: 0.39
change factor (CF) U70063 human acid ceramidase [1]: 2.48
change factor (CF) U91316 acyl-coa thioester hydrolase [1]: 0.69
change factor (CF) X70848 protein phosphatase 1, catalytic subunit [1]: 8.42
change factor (CF) X90846 mixed lineage kinase 2 [1]: −4.95
change factor (CF) X95325 dna binding protein a variant [1]: −1.51
change factor (CF) Z26491 gene catechol o-methyltransferase [1]: −0.31
change factor (CF) Z47055 farnesyl pyrophosphate synthetase like [1]: 1.02
Substance: IFN-α
change factor (CF) D28137 bst-2 [1]: 1.38
change factor (CF) D49824 hla-b null allele [1]: −0.97
change factor (CF) D50914 EST [1]: −2
change factor (CF) HG658 major histocompatibility complex, class 1 c [1]: −1.6
change factor (CF) HG1612 macmarcks [1]: −0.16
change factor (CF) HG2917 major histocompatibility complex, class i, e [1]: −0.1
change factor (CF) J00105 beta-2 microglobulin gene [1]: 0.26
change factor (CF) J00212 leukocyte interferon (ifn-alpha) [1]: −4.3
change factor (CF) J03909 gamma-interferon-inducible protein (ip-30) [1]: 2.38
change factor (CF) J04164 interferon-inducible protein 27-sep [1]: 0
change factor (CF) J04182 lysosomal membrane glycoprotein-1 (lamp1) [1]: 6.33
change factor (CF) J04444 cytochrome c-1 gene [1]: 1.56
change factor (CF) K01900 lymphocyte interferon alpha type 201 [1]: −6.8
change factor (CF) K03515 neuroleukin [1]: −0.17
change factor (CF) L07633 interferon-gamma [1]: 11.5
change factor (CF) M13755 interferon-induced 17-kda/15-kda protein [1]: 0.55
change factor (CF) M30818 interferon-induced cellular resistance mediator protein [1]: 0
change factor (CF) M31013 nonmuscle myosin heavy chain (nmhc) [1]: −0.43
change factor (CF) M34338 spermidine synthase [1]: −0.7
change factor (CF) M60784 ul snrnp-specific protein [1]: 2.59
change factor (CF) M65028 heterogeneous nuclear ribonucleoprotein a/b [1]: 1.29
change factor (CF) M79462 pml-1 [1]: −9.05
change factor (CF) M92642 alpha-1 type xvi collagen (col16a1) [1]: 4.75
change factor (CF) M94880 mhc class i (hla-a*8001) [1]: −0.31
change factor (CF) M97935 transcription factor isgf-3 [1]: −2.6
change factor (CF) M98343 amplaxin (ems1) [1]: 2.15
change factor (CF) S81914 iex-1 = radiation-inducible immediate-early gene [1]: 0.05
change factor (CF) U01824 glutamate/aspartate transporter [1]: −8.69
change factor (CF) U09579 melanoma differentiation associated (mda-6) [1]: 0
change factor (CF) U18009 chromosome 17q21 clone lf113 [1]: −0.59
change factor (CF) U22970 16-jun gene, interferon-inducible peptide (6-16) [1]: 0.2
change factor (CF) U41515 dss1 [1]: 5.15
change factor (CF) U51127 interferon regulatory factor 5 [1]: −1.88
change factor (CF) U52513 rig-g [1]: −13.45
change factor (CF) U53830 interferon regulatory factor 7a [1]: −4.15
change factor (CF) U61263 acetolactate synthase homolog [1]: −0.36
change factor (CF) U65932 extracellular matrix protein 1 (ecm1) [1]: −1.34
change factor (CF) U72206 guanine nucleotide regulatory factor (lfp40) [1]: −0.47
change factor (CF) U72882 interferon-induced leucine zipper protein (ifp35) [1]: −3.63
change factor (CF) U78525 human eukaryotic translation initiation factor (eif3) [1]: 1.25
change factor (CF) X04412 plasma gelsolin [1]: 0
change factor (CF) X07730 prostate specific antigen [1]: −1.75
change factor (CF) X15949 interferon regulatory factor-2 (irf-2) [1]: 0
change factor (CF) X57351 1-8d gene from interferon-inducible gene family [1]: 0.09
change factor (CF) X57522 ring4 cdna [1]: −1.92
change factor (CF) X67325 p27 [1]: 0
change factor (CF) X76538 mpv17 [1]: −0.31
change factor (CF) X96401 rox protein [1]: −1.76
change factor (CF) Y00264 amyloid a4 precursor [1]: 0.09
change factor (CF) Z56281 interferon regulatory factor 3 [1]: −2
nAD D28137 bst-2 (Table 3, CNCM I-2545 (+) IFN-α 100 U/ml 48 hours, (−) 37): 88
change factor (CF) D28137 bst-2 (Table 3, CNCM I-2545, IFN-α 100 U/ml 48 hours): 1.38
